These results are taken from publication PMC11385396 (Journal of Ginseng Research, 2024).

Common to all, as to type: in vivo, Sprague-Dawley rats
For assay [1], the system named is coagulation factor X. In words: Plasma coagulation factor X in rats. To be noted: 12h after last dose of one week gavage.
Assay [2] has as its system coagulation factor II. In words: Plasma coagulation factor II in rats. As to conditions: 12h after last dose of one week gavage.
The nature of assay [3]: Coagulation function. To be noted: rats, 12h after last dose of one week gavage; compared with the control group.

Take `CC(=O)CC(c1ccccc1)c1c(O)c2ccccc2oc1=O` (stereo not shown) [Warfarin]: the “plasma coagulation factor X” value in assay [1] is given as “reduce”. The “plasma coagulation factor II” value in assay [2] is given as “reduce”. For the same compound, in assay [3], the APTT result is reported as “significantly increased” and the INR entry is listed as “significantly increased”.
